{"source": "patent US20080226718A1", "about": "“Indole and Azaindole Derivatives For the Treatment of Inflammatory and Autoimmune Diseases” (Brane Discovery S.r.l, priority 2005, published 2008)", "key": {"[1]": {"tested_on": "encephalitogenic lymphocytes", "experiment": "Spontaneous adhesion of encephalitogenic T cells on purified ICAM-1", "type": "cell-based, SJL mice", "settings": "Mus musculus, Lymphocyte, 1 h", "procedure,_shortened": "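Autoreactive T cells came from SJL mice immunized with PLP139-151. Cells were pretreated for 1 h with compound at 5-100 μM or DMSO vehicle, then tested for spontaneous adhesion to purified ICAM-1 or VCAM-1. Inhibition is given as percent of vehicle control (100%), mean ± S.D. of three-four experiments.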"}, "[2]": {"tested_on": "encephalitogenic lymphocytes", "experiment": "Chemokine-induced adhesion of murine encephalitogenic T cells to ICAM-1", "type": "cell-based, SJL mice", "settings": "for Chemokine-induced Adhesion in encephalitogenic lymphocytes, Mean counts ± S.D., in presence of MIP3-β stimulation: 1 μM CCL19 (MIP-3beta); for Chemokine-induced Adhesion in encephalitogenic lymphocytes, Mean counts ± S.D., in presence of MIP3-β stimulation / Adhesion in encephalitogenic lymphocytes, Mean counts ± S.D., in absence of MIP3-β stimulation: ICAM-1", "procedure,_shortened": "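Murine PLP139-151-reactive T cells from immunized SJL mice were pretreated with compound (5-50 μM, 37° C., 30-60 min or 1 h), then stimulated with 1 μM CCL19 (2-3 min, static) on ICAM-1-coated glass. Bound cells counted after washing and fixation; values are mean counts ±S.D of three experiments.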"}}, "data": [{"smiles": "COC(=O)c1[nH]c2cc(OC)c(OC)cc2c1-c1ccc(OC)cc1", "note": "[Example 1]", "values": [{"measurement": "inhibition at 5 µM", "setting": "[1]; [cpd] 5 μM, read-out: Inhibition of Spontaneous Adhesion in encephalitogenic lymphocytes (% of control/non-treated cells) ICAM-1", "result": 47, "unit": "%"}, {"measurement": "inhibition at 10 µM", "setting": "[1]; [cpd] 10 μM, read-out: Inhibition of Spontaneous Adhesion in encephalitogenic lymphocytes (% of control/non-treated cells) ICAM-1 (converted)", "result": 65, "unit": "%"}, {"measurement": "inhibition at 25 µM", "setting": "[1]; [cpd] 25 μM, read-out: Inhibition of Spontaneous Adhesion in encephalitogenic lymphocytes (% of control/non-treated cells) ICAM-1 (converted)", "result": 70, "unit": "%"}, {"measurement": "inhibition at 50 µM", "setting": "[1]; [cpd] 50 μM, read-out: Inhibition of Spontaneous Adhesion in encephalitogenic lymphocytes (% of control/non-treated cells) ICAM-1 (converted)", "result": 89, "unit": "%"}, {"measurement": "inhibition at 100 µM", "setting": "[1]; [cpd] 100 μM, read-out: Inhibition of Spontaneous Adhesion in encephalitogenic lymphocytes (% of control/non-treated cells) ICAM-1 (converted)", "result": 96, "unit": "%"}, {"measurement": "Block of chemokine-induced autoreactive lymphocyte adhesion, in words", "setting": "[2]; 5-50 μM for 1 h, 1 μM CCL19", "result": "almost complete block"}, {"measurement": "Chemokine-induced Adhesion in encephalitogenic lymphocytes, Mean counts ± S.D., in presence of MIP3-β stimulation", "setting": "[2]; [cpd] 5 μM", "result": "10.3 ± 1.0"}, {"measurement": "Adhesion in encephalitogenic lymphocytes, Mean counts ± S.D., in absence of MIP3-β stimulation", "setting": "[2]; [cpd] 5 μM", "result": "1.3 ± 1.0"}, {"measurement": "Chemokine-induced Adhesion in encephalitogenic lymphocytes, Mean counts ± S.D., in presence of MIP3-β stimulation", "setting": "[2]; [cpd] 10 μM", "result": "7.0 ± 1.0"}, {"measurement": "Adhesion in encephalitogenic lymphocytes, Mean counts ± S.D., in absence of MIP3-β stimulation", "setting": "[2]; [cpd] 10 μM", "result": "1.0 ± 1.0"}, {"measurement": "Chemokine-induced Adhesion in encephalitogenic lymphocytes, Mean counts ± S.D., in presence of MIP3-β stimulation", "setting": "[2]; [cpd] 25 μM", "result": "5.3 ± 2.0"}, {"measurement": "Adhesion in encephalitogenic lymphocytes, Mean counts ± S.D., in absence of MIP3-β stimulation", "setting": "[2]; [cpd] 25 μM", "result": "0.4 ± 0.2"}, {"measurement": "Chemokine-induced Adhesion in encephalitogenic lymphocytes, Mean counts ± S.D., in presence of MIP3-β stimulation", "setting": "[2]; [cpd] 50 μM", "result": "3.2 ± 1.0"}, {"measurement": "Adhesion in encephalitogenic lymphocytes, Mean counts ± S.D., in absence of MIP3-β stimulation", "setting": "[2]; [cpd] 50 μM", "result": "0.4 ± 0.1"}]}]}
